Assay results taken from patent US12338253B2, “Nitrogen-containing polycyclic fused ring compound, pharmaceutical composition thereof, preparation method therefor and use thereof” (APPLIED PHARMACEUTICAL SCIENCE, INC., priority 2019, dated 2025).

How the values were obtained:
RET V804M = RET V804M (Homo sapiens (Human), UniProt P07949, V804M); experiment: HTRF kinase activity test, RET V804M; format: biochemical; conditions: for IC50: HTRF KinEASE-TK; for inhibitory activity on RET V804M compared with cabozantinib: comparison in words
RET G810R = RET G810R (Homo sapiens (Human), UniProt P07949, G810R); experiment: HTRF kinase activity test, RET G810R; format: biochemical; conditions: for IC50: HTRF KinEASE-TK; for inhibitory activity on RET G810R compared with cabozantinib and selpercatinib (LOXO-292): comparison in words
TT Cell = experiment: TT cell activity test (CelltiterGlo, 72 h); format: cell-based, human; conditions: for IC50: Homo sapiens, TT cell line, 72 h, CTG; for inhibitory activity on TT cells compared with cabozantinib: comparison in words
Experimental: 2.3 Data Processing % Inhibition (inhibition rate)=100*(HC−test compound well reading)/(HC−LC) • High control (HC, reading control without inhibition): 0.5% DMSO • Low control (LC, control with compound inhibition): 1 μM CEP-32496
The IC50 values were calculated using GraphPad Prism 6 software. Y=Bottom+(Top−Bottom)/(1+10^((Log IC50−X)*HillSlope)); • X: log of cpd concentration; • Y: % inhibition; • Top and Bottom: plateaus in same units as Y; • Log IC50: same log units as X; and • HillSlope: slope factor The Cell Results are Shown in Table 5: […]

RET wt = RET wt (Homo sapiens (Human), UniProt P07949); experiment: HTRF kinase activity test, RET wt; format: biochemical; conditions: for IC50: HTRF KinEASE-TK; for inhibitory activity on RET wt compared with cabozantinib: comparison in words
Chain of RET wt (P07949 29-1114): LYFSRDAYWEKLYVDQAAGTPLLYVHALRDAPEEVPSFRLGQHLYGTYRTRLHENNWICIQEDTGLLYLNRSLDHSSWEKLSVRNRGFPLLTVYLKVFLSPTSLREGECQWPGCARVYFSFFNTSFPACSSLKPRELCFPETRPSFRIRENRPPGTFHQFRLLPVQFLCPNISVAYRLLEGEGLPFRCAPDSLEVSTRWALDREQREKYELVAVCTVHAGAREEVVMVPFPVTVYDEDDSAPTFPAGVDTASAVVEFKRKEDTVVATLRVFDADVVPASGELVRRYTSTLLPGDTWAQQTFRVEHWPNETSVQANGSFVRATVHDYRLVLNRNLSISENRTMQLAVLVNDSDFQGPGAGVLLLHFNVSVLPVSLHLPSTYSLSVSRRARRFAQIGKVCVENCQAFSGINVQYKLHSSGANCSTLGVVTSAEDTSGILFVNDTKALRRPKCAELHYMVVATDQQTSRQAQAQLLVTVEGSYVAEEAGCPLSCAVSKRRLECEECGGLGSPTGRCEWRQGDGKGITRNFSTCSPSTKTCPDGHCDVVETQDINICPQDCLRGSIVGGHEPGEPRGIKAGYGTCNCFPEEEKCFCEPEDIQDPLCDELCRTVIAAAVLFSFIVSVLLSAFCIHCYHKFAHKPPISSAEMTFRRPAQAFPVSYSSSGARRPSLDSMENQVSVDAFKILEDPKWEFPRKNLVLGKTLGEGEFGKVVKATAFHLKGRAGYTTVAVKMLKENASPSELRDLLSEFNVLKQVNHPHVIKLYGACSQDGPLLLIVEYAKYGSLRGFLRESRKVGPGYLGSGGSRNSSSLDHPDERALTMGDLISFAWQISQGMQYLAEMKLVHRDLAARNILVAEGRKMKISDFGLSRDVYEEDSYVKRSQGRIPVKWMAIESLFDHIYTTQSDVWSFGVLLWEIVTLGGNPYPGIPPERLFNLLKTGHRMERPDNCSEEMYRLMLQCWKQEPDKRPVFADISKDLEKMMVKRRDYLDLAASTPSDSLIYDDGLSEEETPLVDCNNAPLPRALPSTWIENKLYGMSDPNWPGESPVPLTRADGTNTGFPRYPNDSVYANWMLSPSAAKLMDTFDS

Chain of RET V804M (P07949 29-1114 V804M): as the sequence (P07949 29-1114) above, with V776M counted along it
Chain of RET G810R (P07949 29-1114 G810R): as the sequence (P07949 29-1114) above, with G782R counted along it

SMILES	IC50 (RET V804M) [nM]	inhibitory activity on RET V804M compared with cabozantinib (RET V804M)	IC50 (RET G810R) [nM]	inhibitory activity on RET G810R compared with cabozantinib and selpercatinib (LOXO-292) (RET G810R)	IC50 (TT Cell) [nM]	inhibitory activity on TT cells compared with cabozantinib (TT Cell)	IC50 (RET wt) [nM]	inhibitory activity on RET wt compared with cabozantinib (RET wt)
COc1ccc(CN2C3CC2CN(c2cnc(-c4cc(OCCF)cn5nc6[nH]ncc6c45)cn2)C3)cn1 [Compound 16, 6-(2-fluoroethoxy)-4-(5-(6-((6-methoxypyridin-3-yl)methyl)-3,6-diazabicyclo[3.3.1]heptan-3-yl)pyrazin-2-yl)-1H-pyrazolo[3′,4′:3,4]pyrazolo[1,5-a]pyridine]	0.1	significantly better than that of cabozantinib	2.9	significantly better than that of cabozantinib and selpercatinib (LOXO-292)	12.8	significantly better than that of cabozantinib		
COCCOc1cc(-c2ccc(N3CC4CC(C3)N4Cc3ccc(OC)nc3)nc2)c2c3c(N)n[nH]c3nn2c1 [Compound 1, 6-(2-methoxyethoxy)-4-(6-(6-((6-methoxypyridin-3-yl)methyl)-3,6-diazabicyclo[3.3.1]heptan-3-yl)pyridin-3-yl)-1H-pyrazolo[3′,4′:3,4]pyrazolo[1,5-a]pyridin-3-amine]	2.9	significantly better than that of cabozantinib			319		4.1	significantly better than that of cabozantinib
COc1ccc(CN2C3CC2CN(c2ccc(-c4cc(OCCCF)cn5nc6[nH]ncc6c45)cn2)C3)cn1 [Compound 12, 6-(3-fluoropropoxy)-4-(6-(6-((6-methoxypyridin-3-yl)methyl)-3,6-diazabicyclo[3.3.1]heptan-3-yl)pyridin-3-yl)-1H-pyrazolo[3′,4′:3,4]pyrazolo[1,5-a]pyridine]	0.1	significantly better than that of cabozantinib	3.9	significantly better than that of cabozantinib and selpercatinib (LOXO-292)	1.5	significantly better than that of cabozantinib	0.1	significantly better than that of cabozantinib
CCCOc1cc(-c2ccc(N3CC4CC(C3)N4Cc3ccc(OC)nc3)nc2)c2c3cn[nH]c3nn2c1 [Compound 38, 4-(6-(6-((6-methoxypyridin-3-yl)methyl)-3,6-diazabicyclo[3.3.1]heptan-3-yl)pyridin-3-yl)-6-propoxy-1H-pyrazolo[3′,4′:3,4]pyrazolo[1,5-a]pyridine]	0.1	significantly better than that of cabozantinib	2.9	significantly better than that of cabozantinib and selpercatinib (LOXO-292)	10.6	significantly better than that of cabozantinib	0.2	significantly better than that of cabozantinib
COc1cc(-c2ccc(N3CC4CC(C3)N4Cc3ccc(OC)nc3)nc2)c2c3cn[nH]c3nn2c1 [Compound 36, 6-methoxy-4-(6-(6-((6-methoxypyridin-3-yl)methyl)-3,6-diazabicyclo[3.3.1]heptan-3-yl)pyridin-3-yl)-1H-pyrazolo[3′,4′:3,4]pyrazolo[1,5-a]pyridine]	0.1	significantly better than that of cabozantinib	1.7	significantly better than that of cabozantinib and selpercatinib (LOXO-292)	10.7	significantly better than that of cabozantinib	0.2	significantly better than that of cabozantinib
COc1ccc(CN2C3CC2CN(c2ccc(-c4cc(OCC#N)cn5nc6[nH]ncc6c45)cn2)C3)cn1 [Compound 26, 2-((4-(6-(6-((6-methoxypyridin-3-yl)methyl)-3,6-diazabicyclo[3.3.1]heptan-3-yl)pyridin-3-yl)-1H-pyrazolo[3′,4′:3,4]pyrazolo[1,5-a]pyridin-6-yl)oxy)acetonitrile]			2.1	significantly better than that of cabozantinib and selpercatinib (LOXO-292)	22.7	significantly better than that of cabozantinib		
COc1ccc(C(=O)N2C3CC2CN(c2ccc(-c4cc(OCCF)cn5nc6[nH]ncc6c45)cn2)C3)cn1 [Compound 23, (3-(5-(6-(2-fluoroethoxy)-1H-pyrazolo[3′,4′:3,4]pyrazolo[1,5-a]pyridin-4-yl)pyridin-2-yl)-3,6-diazabicyclo[3.3.1]heptan-6-yl)(6-methoxypyridin-3-yl)methanone]	0.1	significantly better than that of cabozantinib			7.9	significantly better than that of cabozantinib		
COc1ccc(CN2C3CC2CN(c2ccc(-c4cc(OCC(C)C)cn5nc6[nH]ncc6c45)cn2)C3)cn1 [Compound 39, 6-isobutoxy-4-(6-(6-((6-methoxypyridin-3-yl)methyl)-3,6-diazabicyclo[3.3.1]heptan-3-yl)pyridin-3-yl)-1H-pyrazolo[3′,4′:3,4]pyrazolo[1,5-a]pyridine]	0.3	significantly better than that of cabozantinib	30.5	significantly better than that of cabozantinib and selpercatinib (LOXO-292)	12.3	significantly better than that of cabozantinib	0.4	significantly better than that of cabozantinib
COc1ccc(C(=O)N2CCN(c3ccc(-c4cc(OCCF)cn5nc6[nH]ncc6c45)cn3)CC2)cn1 [Compound 22, (4-(5-(6-(2-fluoroethoxy)-1H-pyrazolo[3′,4′:3,4]pyrazolo[1,5-a]pyridin-4-yl)pyridin-2-yl)piperazin-1-yl)(6-methoxypyridin-3-yl)methanone]			1.7	significantly better than that of cabozantinib and selpercatinib (LOXO-292)	39.5	significantly better than that of cabozantinib		
COCCOc1cc(-c2ccc(N3CC4CC(C3)N4Cc3ccc(OC)nc3)nc2)c2c3cn[nH]c3nn2c1 [Compound 7, 6-(2-methoxyethoxy)-4-(6-(6-((6-methoxypyridin-3-yl)methyl)-3,6-diazabicyclo[3.3.1]heptan-3-yl)pyridin-3-yl)-1H-pyrazolo[3′,4′:3,4]pyrazolo[1,5-a]pyridine]	0.1	significantly better than that of cabozantinib	2.7	significantly better than that of cabozantinib and selpercatinib (LOXO-292)	2.5	significantly better than that of cabozantinib	0.1	significantly better than that of cabozantinib
CCCCOc1cc(-c2ccc(N3CC4CC(C3)N4Cc3ccc(OC)nc3)nc2)c2c3cn[nH]c3nn2c1 [Compound 11]			10.1	significantly better than that of cabozantinib and selpercatinib (LOXO-292)	16.8	significantly better than that of cabozantinib		
O=C(Cc1ccccn1)N1CCN(c2ccc(-c3cc(OCCF)cn4nc5[nH]ncc5c34)cn2)CC1 [Compound 19, 1-(4-(5-(6-(2-fluoroethoxy)-1H-pyrazolo[3′,4′:3,4]pyrazolo[1,5-a]pyridin-4-yl)pyridin-2-yl)piperazin-1-yl)-2-(pyridin-2-yl)ethan-1-one]			4.8	significantly better than that of cabozantinib and selpercatinib (LOXO-292)	31.2	significantly better than that of cabozantinib		
COc1ccc(CN2C3CC2CN(c2ccc(-c4cc(OCC(F)(F)F)cn5nc6[nH]ncc6c45)cn2)C3)cn1 [Compound 30, 4-(6-(6-((6-methoxypyridin-3-yl)methyl)-3,6-diazabicyclo[3.3.1]heptan-3-yl)pyridin-3-yl)-6-(2,2,2-trifluoroethoxy)-1H-pyrazolo[3′,4′:3,4]pyrazolo[1,5-a]pyridine]			5.9	significantly better than that of cabozantinib and selpercatinib (LOXO-292)	48.6	significantly better than that of cabozantinib		
